# Results from patent US7897633B2, “Inhibitors of glutaminyl cyclase” (Probiodrug AG, priority 2004, dated 2011).
# Key:
# glutaminyl cyclase (QC) = glutaminyl cyclase (QC) (Homo sapiens, UniProt Q16769); experiment: Inhibitor assay for glutaminyl cyclase (QC) activity; conditions: for Res. Act. (%): rapid test of QC-inhibition: 4 mM inhibitor, substrate concentration at 1 KM
# Chain of glutaminyl cyclase (QC) (Q16769 29-361): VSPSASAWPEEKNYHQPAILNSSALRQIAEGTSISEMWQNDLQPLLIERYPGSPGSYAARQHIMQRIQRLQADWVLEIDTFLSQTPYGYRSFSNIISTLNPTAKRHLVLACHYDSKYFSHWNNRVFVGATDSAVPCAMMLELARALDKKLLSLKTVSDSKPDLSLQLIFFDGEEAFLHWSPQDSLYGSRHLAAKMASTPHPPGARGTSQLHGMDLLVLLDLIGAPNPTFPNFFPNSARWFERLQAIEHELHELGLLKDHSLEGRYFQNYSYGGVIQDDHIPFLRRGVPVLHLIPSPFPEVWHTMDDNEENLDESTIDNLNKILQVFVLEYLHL
# Protocol: Excitation/emission wavelengths were 320/410 nm. The assay reactions were initiated by addition of glutaminyl cyclase.
# Reactions were carried out at 30° C. utilizing the NOVOStar reader for microplates (BMG labtechnologies). […] Excitation/emission wavelengths were 380/460 nm. The assay reactions were initiated by addition of glutaminyl cyclase. […] The kinetic data were evaluated using GraFit software.
# The initial velocities were evaluated and the enzymatic activity was determined from a standard curve of ammonia under assay conditions. All samples were measured at 30° C., using either the [sequence]luor Plus or the Sunrise (both from TECAN) reader for microplates. Kinetic data was evaluated using GraFit software.
# For inhibitor testing, the sample composition was the same as described above, except of the putative inhibitory compound added. […] For detailed investigations of the inhibition and determination of Ki-values, influence of the inhibitor on the auxiliary enzymes was investigated first.
melting point [°C],Ki (glutaminyl cyclase (QC)) [µM],Res. Act. (%) (glutaminyl cyclase (QC)),SMILES,further results
155 to 157.5,,,COc1ccc(NC(=S)NC[C@@H](C)Cn2ccnc2)cc1OC,
,1.19,,COC(=O)c1ccc(NC(=S)NCCCn2ccnc2)cc1 [Example 9],
154.5 to 155,3.93,38.5,"FC(F)(F)c1ccc(NC(=S)NCCCn2ccnc2)cc1 [Example 8, 1-(3-(1H-imidazol-1-yl)propyl)-3-(4-(trifluoromethyl)phenyl)thiourea]",
157.5 to 159,,,COc1ccc(NC(=S)NCCn2ccnc2)cc1OC,
,2.52,,S=C(NCCCn1ccnc1)Nc1ccc(Br)cc1 [Example 39],
89.5 to 90,,,COc1cccc(NC(=S)NCCCn2ccnc2)c1,
,,42.7,S=C(NCCCn1ccnc1)NCc1ccc2c(c1)OCO2 [Example 47],
,1.86,,COc1ccc(NC(=S)NCc2ccc(Cn3ccnc3)cc2)cc1OC [Example 105],
140 to 140.5,,,"CSc1ccc(NC(=S)NCCCn2ccnc2)cc1 [Example 33, 1-(3-(1H-imidazol-1-yl)propyl)-3-(4-(methylthio)phenyl)thiourea]",
,2.89,9.0,N#Cc1ccc(NC(=S)NCCCn2ccnc2)cc1 [Example 22],
162.5 to 164,,,COc1ccc(C2(C(=S)NCCCn3ccnc3)CCCCC2)cc1,
,,61.4,S=C(NCCCn1ccnc1)NCc1ccco1 [Example 45],IC50 (glutaminyl cyclase (QC)): 10 µM
,4.62,,S=C(Cc1ccccc1)NCCCn1ccnc1 [Example 113],
100 to 100.5,,,CCc1ccc(NC(=S)NCCCn2ccnc2)cc1,
122 to 122.5,,,CNC(=S)NCCCn1ccnc1,
,19.2,,CCNC(=O)NCCCn1ccnc1 [Example 96],
137.5 to 139,,,S=C(NCCCn1ccnc1)C1(c2ccc(Cl)cc2)CCC1,
103 to 103.5,,,S=C(NCCCn1ccnc1)Nc1ccc2c(c1)OCCO2,
,,33.1,S=C(NCCCn1ccnc1)NC1CCCCCCC1 [Example 44],IC50 (glutaminyl cyclase (QC)): 9.1 µM
120 to 120.5,,,COc1ccc(NC(=S)NCCCn2ccnc2)c(OC)c1,

melting point [°C],Ki (glutaminyl cyclase (QC)) [µM],Res. Act. (%) (glutaminyl cyclase (QC)),SMILES,further results
129 to 129.5,,,COc1ccc(C2(C(=S)NCCCn3ccnc3)CC2)cc1,
,3.62,,CN=C(NCCCn1ccnc1)Nc1ccc(OC)c(OC)c1 [Example 93],
,204,,COc1ccc(NC(=N)NCCCn2ccnc2)cc1OC [Example 92],
115 to 115.6,,,S=C(NCCCn1ccnc1)Nc1ccc2c(c1)OCO2,
124.5 to 125.5,,,COc1cc(NC(=S)NCCCn2ccnc2)cc(OC)c1OC,
,2.12,23.5,S=C(NCCCn1ccnc1)Nc1ccc(I)cc1 [Example 38],
,,9.7,"COc1ccc(NC(=S)NCCCn2ccnc2)cc1 [Example 11, 1-(3-(1H-imidazol-1-yl)propyl)-3-(4-methoxyphenyl)thiourea]",
,3.93,,COc1ccc(CNC(=S)NCCCn2ccnc2)cc1 [Example 29],
,,55.0,S=C(NCCCn1ccnc1)NCCN1CCOCC1 [Example 48],IC50 (glutaminyl cyclase (QC)): 13.3 µM
82 to 82.5,,,C[C@@H](C(=S)NCCCn1ccnc1)c1ccccc1,
,8.17,22.5,N#CN=C(NCCCn1ccnc1)NCc1ccccc1 [Example 68],
,3.52,,COc1ccc(NC(=S)NCc2cccc(Cn3ccnc3)c2)cc1OC [Example 104],
,0.86,3.64,S=C(NCCCn1ccnc1)Nc1ccc(-c2cnco2)cc1 [Example 17],
,,7.2,"CCOc1ccc(NC(=S)NCCCn2ccnc2)cc1 [Example 27, 1-(3-(1H-imidazol-1-yl)propyl)-3-(4-ethoxyphenyl)thiourea]",
,3.57,,CCC(C(=S)NCCCn1ccnc1)c1ccccc1 (centres unmarked) [Example 117],
,0.88,,COc1cc(NC(=NC#N)NCCCn2ccnc2)cc(OC)c1OC [Example 60],
82.5 to 83.5,,,C[C@H](C(=S)NCCCn1ccnc1)c1ccccc1,
,,19.0,O=C(NCCCn1ccnc1)Nc1cc(F)cc2c1OCOC2 [Example 97],IC50 (glutaminyl cyclase (QC)): 12 µM
142 to 143,,,COc1cc(NC(=S)NCCCn2ccnc2)cc(OC)c1,
,0.91,,COc1cc(NC(=NC#N)NCCCn2ccnc2)cc(OC)c1 [Example 57],

melting point [°C],Ki (glutaminyl cyclase (QC)) [µM],Res. Act. (%) (glutaminyl cyclase (QC)),SMILES,further results
127 to 128,,,S=C(NCCCn1ccnc1)NCc1ccccc1,
147 to 147.5,,,CC(C)(C)NC(=S)NCCCn1ccnc1,
166.5 to 168.5,,,COc1ccc(NC(=S)NCC2(Cn3ccnc3)CC2)cc1OC,
170 to 171,1.7,17.0,"CC(=O)c1ccc(NC(=S)NCCCn2ccnc2)cc1 [Example 10, 1-(3-(1H-imidazol-1-yl)propyl)-3-(4-acetylphenyl)thiourea]",
,1.34,,Cc1ccc(NC(=NC#N)NCCCn2ccnc2)cc1 [Example 75],
114.5 to 116,,,COc1ccc(NC(=S)NCCCCn2ccnc2)cc1OC,
,3.29,,S=C(Cc1cccs1)NCCCn1ccnc1 [Example 114],
,2.27,8.5,O=S(=O)(c1ccc(NC(=S)NCCCn2ccnc2)cc1)N1CCCCC1 [Example 20],
,0.62,2.87,COc1ccc(NC(=O)NCCCn2ccnc2)cc1OC1CCCC1 [Example 98],
,4.84,16.27,COc1ccc(NC(=S)NCc2ccccc2Cn2ccnc2)cc1OC [Example 103],
148 to 150,,,COc1ccc(CC(=S)NCCCn2ccnc2)cc1OC,
146.5 to 147,,,CN(C)c1ccc(NC(=S)NCCCn2ccnc2)cc1,
150.5 to 151.5,,,COc1ccc(NC(=S)NC[C@H](C)Cn2ccnc2)cc1OC,
,,5.6,CCCCCCCOc1ccc(NC(=O)NCCCn2ccnc2)cc1 [Example 99],IC50 (glutaminyl cyclase (QC)): 9.9 µM
140 to 141,,,S=C(NCCCn1ccnc1)C1(c2ccc(Cl)cc2)CCCC1,
,,46.0,S=C(NCCCn1ccnc1)NCC1CCCO1 (centres unmarked) [Example 46],IC50 (glutaminyl cyclase (QC)): 12.8 µM
,0.73,,N#CN=C(NCCCn1ccnc1)Nc1ccc2c(c1)OCO2 [Example 59],
,,53.8,CCCCNC(=S)NCCCn1ccnc1 [Example 43],IC50 (glutaminyl cyclase (QC)): 14 µM
128 to 128.5,,,COc1ccc(NC(=S)CCCCn2ccnc2)cc1OC,
